{"source": "patent US11420977B2", "about": "“Late SV40 (LSF) inhibitors” (Trustees of Boston University, priority 2018, dated 2022)", "key": {"[1]": {"biological_target": "T1, tubulin methylation by SET8 (Sus scrofa, UniProt M3V851)", "T1 construct": "consistent with the presence of LSF in the tubulin preparations; purchased MP-Bioscience; host or cells: porcine brain (tubulin); GST-SET8 recombinant", "T1 sequence (M3V851 1-502)": "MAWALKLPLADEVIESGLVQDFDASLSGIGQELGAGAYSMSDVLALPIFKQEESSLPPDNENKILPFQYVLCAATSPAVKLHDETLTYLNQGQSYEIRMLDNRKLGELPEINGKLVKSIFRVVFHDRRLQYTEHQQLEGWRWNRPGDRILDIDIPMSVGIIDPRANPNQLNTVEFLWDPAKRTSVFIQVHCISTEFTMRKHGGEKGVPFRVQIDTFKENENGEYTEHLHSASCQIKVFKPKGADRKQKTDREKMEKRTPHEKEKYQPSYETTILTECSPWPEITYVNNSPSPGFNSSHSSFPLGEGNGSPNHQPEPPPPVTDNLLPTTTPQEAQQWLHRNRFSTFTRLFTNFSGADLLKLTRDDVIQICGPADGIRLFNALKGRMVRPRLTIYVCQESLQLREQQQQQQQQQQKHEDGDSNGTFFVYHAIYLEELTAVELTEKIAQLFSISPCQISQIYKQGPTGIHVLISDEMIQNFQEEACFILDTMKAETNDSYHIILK", "experiment": "In vitro methylation assay, tubulin methylation by SET8", "format": "biochemical, porcine", "settings": "at 100 μM (FIG. 5B lane 4); no LSF added", "method": "(§1) One μg of recombinant GST-SET8 (in 50% glycerol) and 2 μg of the purified tubulin (MP-Bioscience) were incubated with radioactively labeled [3H] AdoMet at room temperature for overnight. As indicated, recombinant His-LSF protein or FQI1 inhibitor were added to the reaction. Samples were separated by electrophoresis through a 10% Tricine Gel (Invitrogen) and the gel was stained with Coomassie Brilliant Blue and incubated with EN3HANCE (PerkinElmer) solution. The gel was dried and exposed to autoradiography film for 1 week. Two […] of each peptide and 2 μg of purified SET8 or full-length SETD2 (Active Motif) were incubated with radioactively labeled [3H] AdoMet at room temperature overnight. Samples were spotted onto P81 filters (Whatman 3698325) and the filter were washed 3 times with 0.3 M ammonium bicarbonate. The ratio of incorporated [^3H]CH3 was determined using liquid scintillation counting."}, "[2]": {"system": "tubulin methylation by SET8", "experiment": "In vitro methylation assay, tubulin methylation by SET8", "format": "biochemical, porcine", "settings": "with 862 nM LSF (FIG. 9B)", "method": "as §1"}, "[3]": {"biological_target": "T2, SET8 methylation of Histone H4 (Homo sapiens, UniProt Q9NQR1)", "T2 construct": "using full-length or overlapping segments of SET8 fused to GST; made in house; host or cells: E. coli", "T2 sequence (Q9NQR1 1-352 isoform Q9NQR1-2)": "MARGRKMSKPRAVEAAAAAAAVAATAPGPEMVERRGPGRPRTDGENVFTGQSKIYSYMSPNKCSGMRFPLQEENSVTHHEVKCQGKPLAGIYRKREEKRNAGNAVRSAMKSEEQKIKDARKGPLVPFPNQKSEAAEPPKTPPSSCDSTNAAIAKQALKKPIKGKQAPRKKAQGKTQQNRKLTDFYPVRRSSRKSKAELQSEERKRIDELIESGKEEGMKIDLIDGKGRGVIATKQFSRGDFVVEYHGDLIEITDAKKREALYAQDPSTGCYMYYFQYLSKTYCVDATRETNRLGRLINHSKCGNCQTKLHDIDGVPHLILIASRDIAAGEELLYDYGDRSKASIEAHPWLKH", "experiment": "In vitro methylation assay, SET8 methylation of Histone H4", "format": "biochemical", "settings": "histone H4 as substrate (FIG. 5C)", "method": "as §1"}, "[4]": {"biological_target": "T3, tubulin (Sus scrofa, UniProt P02550+P02554)", "T3 construct": "purchased Cytoskeleton", "T3 sequence (P02550 whole entry)": "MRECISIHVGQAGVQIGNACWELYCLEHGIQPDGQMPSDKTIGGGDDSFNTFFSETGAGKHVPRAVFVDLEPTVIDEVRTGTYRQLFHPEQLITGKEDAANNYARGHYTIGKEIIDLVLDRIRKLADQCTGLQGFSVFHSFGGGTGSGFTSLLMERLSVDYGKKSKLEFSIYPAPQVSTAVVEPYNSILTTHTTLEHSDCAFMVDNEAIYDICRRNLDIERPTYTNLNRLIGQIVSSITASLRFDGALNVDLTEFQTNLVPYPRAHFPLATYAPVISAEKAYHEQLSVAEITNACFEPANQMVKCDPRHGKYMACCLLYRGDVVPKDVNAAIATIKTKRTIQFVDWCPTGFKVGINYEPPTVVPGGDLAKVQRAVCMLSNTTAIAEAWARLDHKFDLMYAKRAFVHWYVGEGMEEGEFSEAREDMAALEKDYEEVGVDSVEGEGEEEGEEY", "T3 sequence (P02554 whole entry)": "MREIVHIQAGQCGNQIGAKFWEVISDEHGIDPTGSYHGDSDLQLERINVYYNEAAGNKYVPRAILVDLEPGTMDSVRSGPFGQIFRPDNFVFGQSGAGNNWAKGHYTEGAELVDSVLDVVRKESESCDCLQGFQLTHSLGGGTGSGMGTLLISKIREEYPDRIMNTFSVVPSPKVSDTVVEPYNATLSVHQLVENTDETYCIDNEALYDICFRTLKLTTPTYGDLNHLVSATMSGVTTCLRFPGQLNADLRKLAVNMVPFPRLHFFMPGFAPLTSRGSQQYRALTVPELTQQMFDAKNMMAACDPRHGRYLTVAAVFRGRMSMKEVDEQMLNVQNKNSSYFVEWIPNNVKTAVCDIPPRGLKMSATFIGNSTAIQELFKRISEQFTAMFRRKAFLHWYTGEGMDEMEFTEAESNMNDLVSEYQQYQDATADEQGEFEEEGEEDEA", "experiment": "Tubulin polymerization assay (Cytoskeleton kit)", "format": "biochemical", "settings": "FIG. 4C", "method": "Quantitative determination of tubulin polymerization in vitro was carried out using the in vitro polymerization assay kits from either Millipore (17-10194) or Cytoskeleton (FQI1 assay only) according to the manufacturer's conditions. For the Millipopre kit, thawed tubulin was mixed with purified His-LSF, His-SET8 proteins or FQI1 in 70 μL final volumes of 1×PB-GTP solutions, and the 96-well plate was transferred to the pre-warmed (37° C.) SpectraMax M5 Microplate Reader to read UV-Visible Absorbance. Tubulin polymerization was followed by measuring the turbidity variation (light scattering) every 1 min at 350 nm for 1 hr."}, "[5]": {"biological_target": "T4, LSF-tubulin interaction (Homo sapiens, UniProt Q12800)", "T4 construct": "endogenous in cells; host or cells: HEK293T", "T4 sequence (Q12800 whole entry)": "as the sequence (M3V851 1-502) above, with N168T, P302S counted along it", "experiment": "Co-immunoprecipitation of LSF with endogenous α-tubulin from HEK293T cells", "format": "cell-based", "settings": "2.5 μM for 24 hr", "method": "HEK293T, HeLa and COS7 cells were cultured in DMEM media supplemented with 10% FBS. FQI1 treatment of HEK293T cells was for 24 hours at 37° C. with 2.5 μM FQI1. Immunoprecipitation (IP) and immunofluorescence experiments were carried out as described previously. For the immunoprecipitation, 1 mg of total HEK293T cellular extract was incubated with 5 μg of either anti-SET8 antibody (Active Motif) or anti-LSF antibody (Millipore). The immunoprecipitates were blotted with anti-α tubulin, anti-β tubulin (Sigma T9026, T8328), anti-SET8 or anti-LSF (BD) antibodies as per the manufacturer's dilution recommendations. Cellular extracts were also immunoprecipitated with normal IgG (Cell Signaling Technology) as a negative control for all IP experiments."}, "[6]": {"system": "synchronized HCC cells", "experiment": "Mitotic phenotypes in synchronized HCC cells", "format": "cell-based", "settings": "cells synchronized at G1/S border, released in presence of 5 μM", "method": "FIG. 4A is a graph showing tubulin polymerization assay in the presence of low concentrations of LSF (Millipore kit). FIG. 4B are bands showing co-immunoprecipitation of LSF with endogenous α-tubulin from HEK293T cells which was disrupted upon treatment with 2.5 μM FQI1 for 24 hr. FIG. 4C is a graph showing tubulin polymerization assay in the presence of FQI1 and FQI2 (Cytoskeleton kit). Nocodazole was used as a control to inhibit polymerization. […] Cells were synchronized at the G1/S border and released in presence of 5 μM FQI1. Fixed cells were stained with α-tubulin antibody and DAPI."}, "[7]": {"system": "synchronized HeLa cells", "experiment": "Mitotic defects in synchronized HeLa cells", "format": "cell-based, human", "method": "FIG. 8B is an image showing DAPI staining of synchronized cells, treated as indicated in panel FIG. 8A and analyzed at 20× magnification. Samples were collected at 0, 3, 6, and 19 hours post release from a G1/S block in presence of DMSO or FQI1. Insets represent individual cells in more detail. Arrows represent cells in metaphase or prometaphase, respectively, at the 6 hour time point. FIG. 8C is a bar graph showing quantification from 75-100 total cells analyzed by DNA and α-tubulin morphologies, indicating cells containing multi-asters, at 9 hours post release from a G1/S block. Data are representative of 2 experiments. FIG. 8D is a graph showing that the mitotic arrest mediated by limited FQI1 treatment of synchronized cells is reversible. Synchronized cells were released in the presence of 5 μM of FQI1 from a G1/S block. Ten hours after the release, the cells were washed and then either incubated with media alone or re-incubated with media in the presence of 5 μM FQI1. Samples were collected 24 hours post release. Fixed cells were stained with propidium iodide to analyze DNA content. […]"}, "[8]": {"system": "RPE-hTERT Flp-In cells", "experiment": "FQI34/FQI1 comparison, mitotic defects in RPE-hTERT Flp-In cells", "format": "cell-based", "settings": "one hour treatment; FIG. 33", "method": "RPE-hTERT Flp-In cells were incubated in serum-free DMEM:F12 media for 24 hours to synchronize the cells in G0/G1. Cells were stimulated to reenter the cell cycle with DMEM:F12 media containing 10% Fetal Bovine Serum. After 24 hours, the cells were treated with DMSO (vehicle), FQI1 (2.5 μM or 5 μM), or FQI34 (250 nM or 500 nM) for one hour. The cells were washed twice with 1×Phosphate-buffered Saline and fixed with PHEM (3.7% formaldehyde in 100 mM PIPES at pH 6.8, 10 mM EGTA, 1 mM magnesium chloride, and 0.2% Triton X-100) for 10 minutes at room temperature. The fixed cells were stained for α-tubulin using a mouse anti-α-tubulin antibody (Fisher #62204). Secondary antibodies were: DMSO/FQI1 samples—goat anti-mouse IgG conjugated to Alexa 546 (Thermo Fisher #A11003); FQI34 samples—goat anti-mouse IgG conjugated to Texas Red (Fisher #T-862). DNA was stained with Hoechst 33342. Cells were imaged using a Nikon NiE using the 40× objective and images were captured using a DS-Qi1 Mc 12 bit camera. Scale bars and merged images were generated using Fiji software."}, "[9]": {"system": "aggressive HCC cell line", "settings": "in vitro; cited from earlier work"}, "[10]": {"system": "HCC tumors", "settings": "cited from earlier work"}}, "data": [{"smiles": "CCOc1ccccc1C1CC(=O)Nc2cc3c(cc21)OCO3", "note": "(stereo not drawn) [FQI1]", "values": [{"measurement": "decrease of tubulin methylation by SET8", "setting": "[1]", "value": "~3", "unit": "fold"}, {"measurement": "effect on enhancement of tubulin methylation by exogenously added LSF", "setting": "[2]", "value": "inhibited the ability of exogenously added LSF to enhance methylation of tubulin by SET8"}, {"measurement": "effect on SET8 methylation of Histone H4", "setting": "[3]", "value": "does not affect"}, {"measurement": "effect on tubulin polymerization in vitro", "setting": "[4]", "value": "inhibited tubulin polymerization"}, {"measurement": "co-immunoprecipitation of LSF with endogenous α-tubulin", "setting": "[5]", "value": "disrupted"}, {"measurement": "mitotic phenotype", "setting": "[6]", "value": "abnormal mitotic phenotypes"}, {"measurement": "reversibility of mitotic arrest after washout", "setting": "[7]; 5 μM for 10 hours, then washout, 24 hours post release", "value": "reversible"}, {"measurement": "multi-aster formation", "setting": "[7]; synchronized cells, short treatment prior to mitosis (FIG. 8C)", "value": "concentration-dependent increase in multi-aster formation"}, {"measurement": "chromosome and spindle phenotype (DNA and α-tubulin immunofluorescence)", "setting": "[8]", "value": "condensed, but nonaligned chromosomes and disrupted spindles"}, {"measurement": "apoptosis in HCC cell line", "setting": "[9]", "value": "induces apoptosis"}, {"measurement": "toxicity to normal tissues", "setting": "[10]; mouse HCC models", "value": "no observable toxicity to normal tissues"}, {"measurement": "tumor growth in mouse HCC models", "setting": "[10]; multiple mouse HCC models", "value": "significantly inhibits tumor growth"}]}]}
